Earlier results as cited in patent US8980299B2, “Method of making a vascular closure device” (Cordis Corporation, priority 2007, dated 2015).

Tested on: S. aureus
Conditions: suitable growth medium; Bhargava et al., Am J Infect Control, June 1996

For Oc1cc(Cl)ccc1Oc1ccc(Cl)cc1Cl [2,4,4′-trichloro-2′hydroxydiphenyl ether, 2,4,4′-trichloro-2′-hydroxydiphenyl ether], the “minimum inhibitory concentration (MIC) against S. aureus” value is listed as 0.01 ppm.
